# Assay results as given in US5705170A, “Herbal cellulite treatments” (priority 1995, dated 1998).
# Tests used:
# [1] = tested on: adipocytes isolated from the thigh area of volunteers (adipocyte β receptors); assay: Lipolysis stimulation by glycerin release in isolated adipocytes; assay type: cell-based, human; conditions: for Concentration at maximum stimulation: lipolysis; for Emax: Homo sapiens, Adipocyte, read-out: Maximum stimulation (lipolysis)
# Procedure: Glycerin release was used as a parameter to quantify lipolysis in actively metabolism adipocytes isolated from the thigh area of volunteers and evaluate various ingredients for their ability to stimulate adipocyte β receptors. Refined, or purified Malvaceae extracts comprising preferred aqueous or lipophilic fractions as described above, and some known β-adrenergic stimulators used in anticellulite treatments, namely the xanthines aminophylline, caffeine and theophylline, were tested. Also tested, for comparative purposes, were a crude Hibiscus Abelmoschus extract and a herbal ingredient that has been used in anticellulite compositions, ivy extract.
# cAMP = cAMP level (elevation of cAMP); assay type: cell-based, human
# [2] = tested on: isolated adipocytes (adipocyte α2-receptors); assay: Inhibition of adipocyte lipid synthesis (lipogenesis); assay type: cell-based
# Source text: The results obtained are reported below in Table 2.
# [3] = glycerin release, most effective concentration
SMILES,"Maximum stimulation (lipolysis) [1, 3]",Concentration at maximum stimulation [1],Elevation of cAMP (cAMP),Lipogenesis inhibition (in words) [2],Maximum inhibition of adipocyte fat [2],"Emax [1, 3]"
Cn1c(=O)c2[nH]cnc2n(C)c1=O [aminophylline],54.0%,1.00 mg/mL,ns,No lipogenesis inhibition activity,none,
Cn1c(=O)c2c(ncn2C)n(C)c1=O [caffeine],,2.00 mg/mL,ns,,,51%
Cn1c(=O)c2[nH]cnc2n(C)c1=O [theophylline],,1.00 mg/mL,ns,No lipogenesis inhibition activity,none,45%
